In patent publication US20240368115A1, “REGULATOR CONTAINING TRICYCLIC DERIVATIVE, PREPARATION METHOD THEREFOR AND APPLICATION THEREOF” (SHUJING BIOPHARMA CO., LTD, priority 2021, published 2024):

Tests used:
[1] = target: T1, D2L receptor (Homo sapiens, UniProt P14416); experiment: D2L receptor cAMP agonist test; format: cell-based; settings: HEK293 cell strain stably expressing D2L receptor; for EC50: cAMP, forskolin 0.5 μM; for D2L Max Act %: positive control dopamine 1 μM
T1 construct: expressed in transfected cells
Protocol: (§1) • cAMP detection kit was purchased from Cisbio; an HEK293 cell strain stably expressing D2L receptor was constructed by Shanghai Shujing Biopharma Co., Ltd.; dopamine, forskolin, and IBMX were purchased from Sigma; ProxiPlate-384 well plates were purchased from PerkinElmer; HBSS was purchased from Thermo Fisher Scientific.
• (1) The cryopreserved cells were thawed in a water bath at 37° C., the cell suspension was resuspended in HBSS buffer, and the mixed solution was centrifuged at 750 rpm for 5 min to remove the medium. The pellet was resuspended in an appropriate amount of experimental buffer, and an appropriate amount of cell suspension was diluted to 0.4×10^6 cells/mL. • (2) 5 μL of cell suspension was added to a ProxiPlate-384 well plate (2×10^3 cells/well), and the plate was centrifuged at 1000 rpm for 1 min. • (3) Test compounds were serially diluted in an experimental buffer, and 5 μL of the mixed solution was transferred to the reaction plate with Bravo.

[2] = target: T2, 5-HT1A receptor (Homo sapiens, UniProt P08908); experiment: 5-HT1A receptor cAMP agonist test; format: cell-based; settings: HEK293 cell strain stably expressing 5-HT1A receptor; for EC50: cAMP, forskolin 2.5×10^−7 M; for 5-HT1A Max Act %: positive control serotonin 10^−6 M
T2 construct: expressed in transfected cells
T2 sequence (P08908 1-422): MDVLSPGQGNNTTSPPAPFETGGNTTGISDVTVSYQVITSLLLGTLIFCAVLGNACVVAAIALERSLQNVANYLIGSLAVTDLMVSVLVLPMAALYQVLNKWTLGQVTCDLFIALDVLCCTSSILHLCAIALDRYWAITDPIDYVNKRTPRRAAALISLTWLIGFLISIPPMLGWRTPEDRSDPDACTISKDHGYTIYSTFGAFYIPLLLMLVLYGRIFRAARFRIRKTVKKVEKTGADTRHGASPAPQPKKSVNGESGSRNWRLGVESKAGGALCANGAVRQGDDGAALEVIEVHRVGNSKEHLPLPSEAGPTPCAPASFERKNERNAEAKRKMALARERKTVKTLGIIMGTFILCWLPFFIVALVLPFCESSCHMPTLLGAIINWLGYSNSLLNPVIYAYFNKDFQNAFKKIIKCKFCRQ
Text: as §1, with “5-HT1A” for “D2L”, “serotonin,” for “dopamine,”
(§2) • (1) The cultured cells were digested with trypsin, and the cell suspension was washed with HBSS buffer after the digestion was terminated. The medium was removed by centrifugation at 200×g. The pellet was resuspended in an appropriate amount of experimental buffer, and 20 μL of cell suspension was counted using a cell counter and diluted to 0.4×10^6 cells/mL. • (2) 5 μL of cell suspension was added to a ProxiPlate-384 well plate (2×10^3 cells/well). • (3) Test compounds were serially diluted in an experimental buffer, and 5 μL of the mixed solution was transferred to the reaction plate with Bravo.

[3] = target: T3, D2S receptor (Homo sapiens, UniProt P14416); experiment: D2S receptor cAMP agonist test; format: cell-based; settings: HEK293 cell strain stably expressing D2S receptor; for EC50: cAMP, forskolin 5×10^−7 M; for D2S Max Act %: positive control dopamine 1×10^−7 M
T3 construct: expressed in transfected cells
Text: as §1, with “cAMP” for “• cAMP”, “D2S” for “D2L”
as §2, with “0.6×10^6” for “0.4×10^6”, “(3×10^3” for “(2×10^3”

[4] = target: 5-HT2A receptor (Homo sapiens, UniProt P28223); experiment: Calcium flux test for 5-HT2A receptor; format: cell-based; settings: CHO cell strain stably expressing 5-HT2A receptor; for IC50: calcium flux, antagonism of serotonin; for 5-HT2A Max Inh %: positive control ketanserin 10^−7 M
Protocol: • Fluo-4 calcium flux detection kit was purchased from Invitrogen; a CHO cell strain stably expressing 5-HT2A receptor was purchased from PerkinElmer; serotonin was purchased from Sigma; ketanserin was purchased from Targetmol; polylysine-coated 384-well plates and 384-well compound plates were purchased from Greiner Bio-One. Molecular Device FLIPR, Agilent Bravo liquid workstation, and Countstar BioTech cell counter.
• (1) The cryopreserved cells were rapidly thawed in a water bath at 37° C., and the cells were resuspended in a plating medium. The cryopreservation solution was removed by centrifugation at 200×g. The pellet was resuspended in an appropriate amount of plating medium, 20 μL of cell suspension was counted using a cell counter, and the cell density was diluted to 1×10^6 cells/mL. • (2) 20 μL of cell suspension was added to a polylysine-coated 384-well plate (2×10^4 cells/well). • (3) The cell plate was incubated in a 37° C./5% CO2 incubator for 16-20 h.
• (1) The cell plate was taken out from the incubator and centrifuged at 100×g to remove the medium. 20 μL of experimental buffer was added, and then 20 μL of 2× fluorescent probe solution was added. […] The cell plate and agonist positive compound plate were placed into the FLIPR instrument, the detection program was run, 10 μL of the diluted compound was transferred from the agonist compound plate to the cell plate, and the fluorescence signal was read. […] The cell plate and test compound plate were placed in the FLIPR instrument, the detection program was run, and 10 μL of the diluted compound was transferred from the test compound plate to the cell plate. […] The test compound plate was then taken out, and the agonist positive compound plate with 6×EC50 concentration was placed.
Inhibition rate (Inhibition %)=(negative control reading value−compound reading value)/(negative control reading value−positive control reading value)×100%

[5] = Pharmacokinetic test in mice; format: in vivo; settings: male, ICR, mouse, plasma, po, 5 mg/kg, oral intragastric, single dose 5 mg/kg; for AUC(0-inf): read-out: AUC(0-inf); for Cmax: read-out: Cmax
Protocol: Male ICR mice were administered orally intragastrically, the plasma concentrations of the compounds of the present invention were measured in the mice, the PK parameters were calculated, and the pharmacokinetic evaluation was performed on the compounds of the present invention.
• (1) Test samples: the compounds of the examples of the present invention, self-made. • (2) Test animals: ICR mice, SPF grade, male, Xuzhou Medical University. • (3) Main test instruments:
Drug preparation: according to the weight of the weighed drug, the preparation volume was calculated. 5% of DMSO was added firstly. After the drug was fully dissolved, 95% of 20% aqueous PB-cyclodextrin solution was then added, and the mixture was mixed well for later use.
Administration route: oral intragastric administration. Frequency and duration of administration: single administration.
ICR mice were stratified according to body weight and then randomly divided into groups of 9 mice each, and the mice were fasted overnight prior to the test. The mice were separately administered orally intragastrically. 50 μL of blood was collected from the fundus vein of the mouse at 0 h, 0.083 h, 0.25 h, 0.5 h, 1 h, 2 h, 4 h, 8 h, 12 h, and 24 h (3 time points for each mouse) to a sample tube containing heparin sodium as an anticoagulant, and the tube was placed in wet ice and centrifuged at 4000 r·min^−1 for 10 min. The plasma was separated, and cryopreserved in a refrigerator at −80° C. for testing.
The concentrations of plasma samples were measured by high performance liquid chromatography-tandem mass spectrometry (LC-MS/MS). The retention times of the compounds and internal standard, chromatogram acquisitions, and integrals of chromatograms were processed using the software Analyst (AB SCIEX), and the data statistics were processed using the software Watson LIMS (Thermo Fisher Scientific) or Analyst (AB SCIEX). The concentration of plasma was processed using a non-compartmental model of the pharmacokinetic software WinNonlin™ Version 6.3 (Pharsight, Mountain View, CA), and pharmacokinetic parameters were calculated by a linear log-trapezoidal method.

T3 sequence (P14416 1-414 isoform P14416-2): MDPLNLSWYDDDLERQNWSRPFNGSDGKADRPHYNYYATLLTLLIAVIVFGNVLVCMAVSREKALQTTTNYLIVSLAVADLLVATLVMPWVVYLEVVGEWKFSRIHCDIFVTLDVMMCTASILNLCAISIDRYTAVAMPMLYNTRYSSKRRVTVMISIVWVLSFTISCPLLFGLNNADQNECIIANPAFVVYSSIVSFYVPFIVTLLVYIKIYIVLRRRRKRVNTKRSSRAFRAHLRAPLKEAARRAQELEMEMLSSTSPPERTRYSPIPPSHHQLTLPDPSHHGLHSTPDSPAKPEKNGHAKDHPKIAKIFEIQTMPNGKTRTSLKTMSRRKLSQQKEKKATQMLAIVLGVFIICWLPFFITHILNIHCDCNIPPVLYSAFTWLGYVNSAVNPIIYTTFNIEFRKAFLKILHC
T1 sequence (P14416 whole entry): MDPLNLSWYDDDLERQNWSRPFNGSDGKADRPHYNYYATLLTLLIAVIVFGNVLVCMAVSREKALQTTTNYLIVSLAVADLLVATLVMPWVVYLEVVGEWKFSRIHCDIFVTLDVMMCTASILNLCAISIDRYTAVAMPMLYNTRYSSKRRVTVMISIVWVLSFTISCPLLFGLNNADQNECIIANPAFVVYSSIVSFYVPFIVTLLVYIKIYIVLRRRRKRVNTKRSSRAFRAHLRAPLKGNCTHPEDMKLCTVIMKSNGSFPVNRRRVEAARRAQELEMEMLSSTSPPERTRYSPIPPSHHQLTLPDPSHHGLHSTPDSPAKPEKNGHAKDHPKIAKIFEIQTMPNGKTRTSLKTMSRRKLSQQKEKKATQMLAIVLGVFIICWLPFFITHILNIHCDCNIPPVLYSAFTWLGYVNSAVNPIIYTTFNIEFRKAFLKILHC
Chain of 5-HT2A receptor (P28223 whole entry): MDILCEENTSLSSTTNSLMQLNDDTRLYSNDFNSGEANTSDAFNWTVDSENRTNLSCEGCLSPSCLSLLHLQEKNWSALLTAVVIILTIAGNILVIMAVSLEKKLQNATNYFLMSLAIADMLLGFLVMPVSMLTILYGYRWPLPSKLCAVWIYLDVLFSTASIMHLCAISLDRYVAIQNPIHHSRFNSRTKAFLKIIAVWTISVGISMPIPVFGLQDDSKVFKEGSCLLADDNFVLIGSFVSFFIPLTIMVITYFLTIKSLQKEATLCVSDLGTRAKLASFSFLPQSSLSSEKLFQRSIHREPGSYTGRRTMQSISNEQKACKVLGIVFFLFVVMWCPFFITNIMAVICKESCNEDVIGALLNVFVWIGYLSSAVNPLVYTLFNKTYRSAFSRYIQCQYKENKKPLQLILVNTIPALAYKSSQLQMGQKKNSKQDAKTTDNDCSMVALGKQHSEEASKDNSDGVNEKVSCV

Structure (SMILES) | EC50 [1] [nM] | D2L Max Act % [1] [%] | EC50 [2] [nM] | 5-HT1A Max Act % [2] [%] | EC50 [3] [nM] | D2S Max Act % [3] [%] | IC50 [4] [nM] | 5-HT2A Max Inh % [4] [%] | half-life [5] [h] | AUC(0-inf) [5] [ng·h/mL] | Cmax [5] [ng/mL]
O=C1Nc2cc(OCCCCN3CCN(c4cccc5sccc45)CC3)ccc2C2CC12 (single isomer, unassigned) [Example 42-P1] | 0.99 | 29.6 | 143 | 62.9 | 1 | 102.0 | 1950 | 100.5 | 4.1 | 8000 | 1180
O=C1Nc2cc(OCCCCN3CCN(c4cccc(Cl)c4Cl)CC3)ccc2[C@H]2C[C@@H]12 (single isomer, unassigned) [Example 1-P1] | 1.07 | 47.7 | 1800 | 33.9 | 0.94 | 111.9 | 745 | 100.3 | 34.3 | 13100 | 341
O=C1Nc2cc(OCCCCN3CCN(c4cccc5c4OC(F)(F)O5)CC3)ccc2C2CC12 (stereo not shown) [Example 41, 5-(4-(4-(2,2-Difluorobenzo[d][1,3]dioxolan-4-yl)piperazin-1-yl)butoxy)-1,1a,3,7b-tetrahydro-2H-cyclopropa[c]quinolin-2-one] | 0.97 | 42.4 | 50.8 | 92.7 | 0.92 | 115.0 | 3350 | 80.4 | 8.6 | 9970 | 971
O=C1Nc2cc(OCCCCN3CCN(c4cccc(Cl)c4Cl)CC3)ccc2[C@@H]2C[C@H]12 (single isomer, unassigned) [Example 1-P2] | 0.61 | 33.1 | 1210 | 45.2 | 1.49 | 113.8 | 737 | 100.3 | 10.8 | 7100 | 430
O=C1Nc2cc(OCCCCN3CCN(c4cccc5c4CCO5)CC3)ccc2C2CC12 (stereo not shown) [Example 45, 5-(4-(4-(2,3-Dihydrobenzofuran-4-yl)piperazin-1-yl)butoxy)-1,1a,3,7b-tetrahydro-2H-cyclopropa c quinolin-2-one] | 0.44 | 41.3 | 253 | 54.7 | 0.93 | 105.6 | 460 | 100.1 | 6.1 | 9650 | 1160
